The values that follow come from patent US20200009068A1, “NANOPARTICLE FORMULATIONS FOR ENHANCED DRUG DELIVERY TO THE BLADDER” (The Johns Hopkins University, priority 2017, published 2020).

In one series the test system is RT4 cells. Put plainly: In vitro cytotoxicity assay (CellTiter-Glo cell viability). It counts as cell-based, human. The settings on record: 72 hr, triplicate. The protocol:
In vitro cytotoxicity of CDDP, oxaliplatin, PAA-CDDP NPs, PEGlow-PAA-CDDP NPs and PEGhigh-PAA-CDDP NPs was evaluated using a superficial bladder cancer cell line (RT4) in triplicate. RT4 cells were purchased from the American Type Culture Collection (ATCC, Manassas, Va.) and cultured in McCoy's 5A (Thermo Fisher Scientific, Waltham, Mass.) at 37° C. under 5% CO2. Cells were seeded in 96-well tissue-treated culture plates at a density of 5×10^3 cells in 100 μl of complete medium and cultured overnight. Then, the supernatant was removed, and a known concentration of CDDP, oxaliplatin, or CDDP NPs (100 μl) was added into the wells. After 72 hr, cell viability was measured using CellTiter-Glo Luminescent Cell Viability Assay Kit (Promega, Madison, Wis.) according to manufacturer's protocol. Acquired data was analyzed to depict sigmoidal dose-response curve with Graph Pad Prism 5 (Graph Pad Software Inc., San Diego, Calif.) using the equation log(inhibitor) vs. response-variable slope.

Series [1] in a line: CDDP levels in mouse bladder after intravesical administration. The settings on record: mice. It counts as in vivo. The protocol: Female CF-1 mice (age 8 weeks) were purchased from Harlan (Indianapolis, Ind.) and acclimated in the animal facility for 4 weeks. Mice were randomly divided into different groups (n≥5). Mice were anesthetized with an isoflurane vaporizer and nose cone system and catheterized using polyethylene tubing mounted on a 30G needle. After catheterization, the bladder was emptied of urine by aspiration and/or gentle pressure on the abdomen. Then, 100 μl of CDDP solution, PAA-CDDP NPs, PEGlow-PAA-CDDP NPs or PEGhigh-PAA-CDDP NPs at 0.7 mg/ml CDDP content was instilled into the bladder by intravesical administration. Mice were maintained under anesthesia for 1 h and then allowed to wake up. To assess systemic exposure, mice were euthanized at 1, 4, and 24 h and plasma was obtained for analysis of CDDP content. To assess local toxicity of CDDP solution and CDDP NPs, mice received a total of three intravesical doses spaced one week apart. Bladder tissues were obtained 24 h after the third dose, photographed, and weighed.
200 μl of plasma or bladder were transferred to a clean borosilicate glass cell culture tube, and 1 ml of 22% nitric acid was added. All samples were heated to 90° C. to digest plasma proteins or bladder tissues and to extract platinum. […] CDDP content in the solution was analyzed by AAS. The lowest limit of quantification for CDDP was 250 ng/ml (<1% of the administered dose).

Series [2] is described as follows: Bladder uptake and retention in rats (CDDP content by AAS). It counts as in vivo. The settings on record: intravesical. The method, then:
Female Fischer 344 rats (age 7 weeks) were purchased from Harlan (Indianapolis, Ind.) and acclimated in the animal facility for 1 week. Before starting the experiment, rats were randomly divided into different groups (n≥5). Rats were anesthetized with an isoflurane vaporizer and nose cone system and catheterized using a 20G angiocatheter sheath. After catheterization, the bladder was voided using aspiration and/or gentle pressure on the abdomen. Then, 300 μl of CDDP solution, PAA-CDDP NPs, PEGlow-PAA-CDDP NPs, or PEGhigh-PAA-CDDP NPs (CDDP content 0.7 mg/ml) was instilled by intravesical administration. Rats were maintained under anesthesia for 1 h and then allowed to wake up. Plasma and bladder tissues were obtained at 1 and 4 h for analysis of CDDP content. Bladder tissues were dipped in PBS and gently squeezed with forceps to remove any residual fluid.
200 μl of plasma or bladder were transferred to a clean borosilicate glass cell culture tube, and 1 ml of 22% nitric acid was added. All samples were heated to 90° C. to digest plasma proteins or bladder tissues and to extract platinum. The solution was heated until a dry yellow film was obtained. Then, 1 ml of 2.2% nitric acid added to dissolve the dried residue containing platinum. CDDP content in the solution was analyzed by AAS. The lowest limit of quantification for CDDP was 250 ng/ml (<1% of the administered dose).

For series [3], the system named is N-methyl-N-nitrosourea (MNU) induced rat bladder carcinogenesis model. The series can be described thus: In vivo efficacy, tumor staging by histopathology. The settings on record: weekly intravesical dosing weeks 8-14, 0.7 mg/ml in 300 μl, sacrifice week 15. From the text: The N-methyl-N-nitrosourea (MNU) rat model of bladder cancer was chosen because it recapitulates human non-muscle invasive bladder cancer, with carcinoma in situ (CIS), non-invasive papillary carcinoma (Ta), and high grade invasive papillary carcinoma (T1) histologies, and progresses from dysplasia to NMIBC to MIBC (Steinberg G D, et al., Cancer Res, 50(20):6668-74 (1990)). This animal model progresses from dysplasia to NMIBC between about week 8 and about week […], making it a desirable time to initiate treatment and a good recapitulation of a chemopreventative treatment model. Additionally, the MNU model represents an outbred strain of NMIBC, as opposed to an inbred strain utilizing immortal clones of genetically identical tumor strains. […] Since no reliable xenograft model was believed to be present of NMIBC that progresses to MIBC in a temporal time-dependent fashion similar to human urothelial cancer, a carcinogen model was chosen to recapitulate the heterogeneity of human disease, study the antineoplastic and immunologic effects of treatment, and reflect the typical progression of non-muscle to muscle invasive cancer. In this model, the presence of NMIBC progresses from about week 8 to about week 15, at which point all rats have NMIBC.
Fischer 344 female rats (age 7 weeks) were anesthetized with an isoflurane vaporizer and nose cone system. […]

The test system is the same in series [4]. Put plainly: Immunohistochemical staining of bladder sections. The settings on record: CDDP study, week 15. The class given is in vivo. The protocol:
Fischer 344 female rats (age 7 weeks) were anesthetized with an isoflurane vaporizer and nose cone system. After complete anesthesia and preparation of the surgical area, a 20G angiocatheter (BD) was placed into the rat's urethra and the bladder was emptied of urine. MNU (1.5 mg/kg MNU dissolved in 0.30 ml of 0.9% saline, pH 6.0) was then instilled into the bladder under 45 min of continued sedation to prevent spontaneous micturition and allow absorption. In order to explore the potential for treatment to prevent recurrence, treatment was initiated from weeks 8-14. Treatment groups (n=5 per group) included CDDP and PAA-CDDP NPs dosed weekly. All formulations were delivered at a concentration of 0.7 mg/ml in 300 μl. Rats were sacrificed at week 15 for histopathologic analysis of bladder tissue. Bladders were formalin fixed, paraffin embedded, sectioned, and stained with hematoxylin-eosin for classification according to the World Health Organization/International Society of Urological Pathology consensus. Tumor staging was performed in a blinded fashion by a board certified genitourinary pathologist.
For immunohistochemical staining, high-temperature antigen retrieval (18-23 psi/126° C.) was performed by immersing the slides in Trilogy (Cell Marque, Hot Springs, Ark.). Endogenous peroxidase activity was blocked for 5 min in using Dual Endogenous Enzyme Block (Dako S2003). Primary Antibody used included KI 67 (Abcam;ab16667). Slides were stained with Impact DAB (Vector Labs, Burlingame, Calif., USA) for 3 min and counterstained with haematoxylin (Richard-Allen, Kalamazoo, Mich., USA). For each section, Ki67+, cells were counted in 10 random 400× fields.
In a MNU-induced rat bladder carcinogenesis model as described in Example 3, Fischer Rat received weekly intravesical administration of Taxotere, DTX NS, or saline, for six weeks.

The conditions of series [5]: 50 patients, intravesical CDDP for more than 4 months; cited from earlier work.
The conditions of series [6]: systemic CDDP therapy; cited from earlier work.

On to `N.N.O=C([O-])C1(C(=O)[O-])CCC1.[Pt+2]` [Carboplatin], for which the “RT4 cells-IC50” value in the series with RT4 cells is 17.18 ± 0.056 μg/ml of Pt.

Regarding `N.N.[Cl][Pt][Cl]` [Cisplatin, cis-diamminedichloridoplatinum (II)], the “RT4 cells-IC50” value with RT4 cells is reported as 1.39 ± 0.03 μg/ml of Pt. For the same compound, the “CDDP levels in mouse bladder at 1 h” value in series [1] (1 h under anesthesia) is “similar”. In addition, the “CDDP levels in mouse bladder at 4 h” value in series [1] (4 h (3 h ambulatory time)) was “below the limit of quantitation”. Further, in series [2], the “CDDP levels in rat bladder at 4 h” value is recorded as “below the level of detection”. Further, the “rats with T1 high grade tumors in the bladder” value in series [3] is 20%. Moreover, in series [4], the “Ki67+ staining compared to untreated controls” value is “decreased Ki67+ staining, though statistically indistinguishable from the untreated control group”; the “number of CD3+ cells compared to untreated controls” value was “without differences”; the “number of CD8+ cells compared to untreated controls” value is “significantly lower numbers”; the “number of Foxp3+ cells compared to untreated controls” value was “without differences”. Also, in series [5], the “patients who stopped treatment early due to chemical cystitis” value is on record as 6% and the “patients with anaphylactic reaction due to systemic drug absorption resulting in hypotensive shock” value is 14%. In addition, in series [6], the “cases with hypersensitivity reactions” value is listed as 5-20%.
